Reference: ChEMBL document CHEMBL3046904, “Synthesis, characterization, bioactivity, and POM analyses of isothiochromeno[3,4-e][1,2]oxazines” (2013)

Tests used:
Assay type in all cases: functional
SF-268 = test: Cytotoxicity against Homo sapiens (human) SF268 assessed as cell growth at 10^-4 M after 48 hr by Alamar Blue assay; details: SF-268, 48 h, read-out: Activity
NCI-H460 = test: Cytotoxicity against Homo sapiens (human) NCI-H460 assessed as cell growth at 10^-4 M after 48 hr by Alamar Blue assay; details: NCI-H460, 48 h, read-out: Activity
MCF7 = test: Cytotoxicity against Homo sapiens (human) MCF7 assessed as cell growth at 10^-4 M after 48 hr by Alamar Blue assay; details: MCF7, 48 h, read-out: Activity

Row | Structure (SMILES) | growth at 100 µM (SF-268) | growth at 100 µM (NCI-H460) | growth at 100 µM (MCF7)
1 | COc1ccc(C2=C3SC=c4ccccc4=C3ON=C2c2ccc(Cl)cc2)cc1 | 102% | 85% | 51%
2 | Cc1ccc(C2=NOC3=c4ccccc4=CSC3=C2c2ccc([N+](=O)[O-])cc2)cc1 | 111% | 97% | 99%
3 | O=[N+]([O-])c1ccc(C2=C3SC=c4ccccc4=C3ON=C2c2ccc(Cl)cc2)cc1 | 104% | 97% | 85%
4 | C1=c2ccccc2=C2ON=C(c3ccccc3)C(c3ccccc3)=C2S1 | 97% | 94% | 104%
5 | Cc1ccc(C2=NOC3=c4ccccc4=CSC3=C2c2ccccc2)cc1 | 66% | 92% | 51%
6 | COc1ccc(C2=NOC3=c4ccccc4=CSC3=C2c2ccccc2)cc1 | 106% | 101% | 97%
7 | O=[N+]([O-])c1ccc(C2=NOC3=c4ccccc4=CSC3=C2c2ccccc2)cc1 | 101% | 100% | 62%
8 | Clc1ccc(C2=NOC3=c4ccccc4=CSC3=C2c2ccccc2)cc1 | 95% | 92% | 95%
